In one experiment the test system is Bacillus spizizenii. Description: Antimicrobial activity against Bacillus subtilis ATCC 6633 after 24 hrs by microbroth dilution method. In kind it is functional. The conditions noted are these: ATCC 6633, 24 h. (In general: Dilution methods test growth across graded concentrations, often in twofold steps.)
The subject of another experiment is Salmonella typhi. In words: Antimicrobial activity against Bacillus typhi after 24 hrs by microbroth dilution method. In kind it is functional, Salmonella enterica subsp. enterica serovar Typhi. Conditions: Salmonella enterica.
The next experiment relates to Candida. In words: Antimicrobial activity against Candida mycoderma ATCC 9888 after 24 hrs by microbroth dilution method. In kind it is functional. Conditions: ATCC 9888, 24 h.
The nature of experiment [1]: Antimicrobial activity against Bacillus proteus ATCC 13315 after 24 hrs by microbroth dilution method. The conditions noted are these: ATCC 13315, 24 h. In kind it is functional.
The next experiment deals with Aspergillus flavus. Description: Antimicrobial activity against Aspergillus flavus ATCC 204304 after 24 hrs by microbroth dilution method. Conditions: ATCC 204304, 24 h. The experiment is classed as functional.
Experiment [2] deals with Escherichia coli. In words: Antimicrobial activity against Escherichia coli DH52 after 24 hrs by microbroth dilution method. The experiment is classed as functional. The conditions noted are these: DH52, 24 h.
Experiment [3] concerns Staphylococcus aureus. Description: Antimicrobial activity against Staphylococcus aureus ATCC 25923 after 24 hrs by microbroth dilution method. In kind it is functional. The conditions noted are these: ATCC 25923, 24 h.
Experiment [4] has as its system Saccharomyces cerevisiae. In words: Antimicrobial activity against Saccharomyces cerevisiae after 24 hrs by microbroth dilution method. In kind it is functional.
A further experiment concerns Candida albicans. Description: Antimicrobial activity against Candida albicans ATCC 10231 after 24 hrs by microbroth dilution method. The conditions noted are these: ATCC 10231, 24 h. The experiment is classed as functional.
Experiment [5] relates to Staphylococcus aureus. In words: Antimicrobial activity against methicillin-resistant Staphylococcus aureus N315 after 24 hrs by microbroth dilution method. In kind it is functional. The conditions noted are these: N315, 24 h.
The test system of experiment [6] is Escherichia coli. In words: Potency index, ratio of chloromycin MIC to compound MIC for antimicrobial activity against Escherichia coli DH52. In kind it is functional.
The next experiment deals with Micrococcus luteus. In words: Antimicrobial activity against Micrococcus luteus ATCC 4698 after 24 hrs by microbroth dilution method. The experiment is classed as functional. Conditions: ATCC 4698, 24 h.
The test system of experiment [7] is Escherichia coli. Description: Antimicrobial activity against Escherichia coli JM109 after 24 hrs by microbroth dilution method. In kind it is functional. Conditions: JM109, 24 h.
In the next experiment the test system is Bacillus. In words: Potency index, ratio of norfloxacin MIC to compound MIC for antimicrobial activity against Bacillus proteus ATCC 13315. In kind it is functional.
Experiment [8] has as its system Calf thymus DNA. Description: Binding affinity to calf thymus DNA assessed as compound-DNA complex formation at 4.87x10'-5 mol/l by fluorescence analysis. The conditions noted are these: Bos taurus. The experiment is classed as nucleic-acid assay.
Experiment [9] relates to Staphylococcus aureus. In words: Potency index, ratio of norfloxacin MIC to compound MIC for antimicrobial activity against methicillin-resistant Staphylococcus aureus N315. In kind it is functional.
Experiment [10] has as its system Calf thymus DNA. Description: Binding affinity to calf thymus DNA assessed as compound-DNA complex formation by fluorescence analysis in presence of quencher potassium iodide. Conditions: Bos taurus. In kind it is nucleic-acid assay.
In experiment [11] the test system is Staphylococcus aureus. Description: Potency index, ratio of chloromycin MIC to compound MIC for antimicrobial activity against methicillin-resistant Staphylococcus aureus N315. The experiment is classed as functional.
Experiment [12] relates to Calf thymus DNA. Description: Binding affinity to calf thymus DNA assessed as compound-DNA complex formation by UV-visible spectroscopy. The experiment is classed as nucleic-acid assay. Conditions: Bos taurus.
Experiment [13] relates to Saccharomyces cerevisiae. Description: Potency index, ratio of fluconazole MIC to compound MIC for antimicrobial activity against Saccharomyces cerevisiae. The experiment is classed as functional.
The test system of experiment [14] is Calf thymus DNA. In words: Competitive binding affinity to calf thymus DNA assessed as compound-DNA complex formation at 0.74 to 2.18x10'-5 mol/l by UV-visible spectroscopy in presence of neutral red dye. In kind it is nucleic-acid assay. The conditions noted are these: Bos taurus.

Each structure is given as a SMILES string. Converted amounts (≈) assume the structure as drawn. The source made the active and inactive calls. No cut-off for these calls is given here.

For orientation: MIC means the lowest concentration found to suppress growth. A lower MIC goes with a more susceptible organism. Turning to `CCn1c(Cn2cc(F)c(=O)[nH]c2=O)nc2ccccc21`, the MIC in the experiment with Bacillus spizizenii was found to be 64 µg/mL (≈ 222 µM); against Salmonella typhi it was 32 µg/mL (≈ 111 µM); against Candida, 16 µg/mL (≈ 55.5 µM); in experiment [1], 32 µg/mL (≈ 111 µM); against Aspergillus flavus, 32 µg/mL (≈ 111 µM); against Escherichia coli [2], 8 µg/mL (≈ 27.8 µM). Also, the MIC in the experiment with Staphylococcus aureus [3] was 16 µg/mL (≈ 55.5 µM); in the experiment on Saccharomyces cerevisiae [4] it was 4 µg/mL (≈ 13.9 µM); with Candida albicans, 2 µg/mL (≈ 6.94 µM); against Staphylococcus aureus [5], 16 µg/mL (≈ 55.5 µM); against Micrococcus luteus, 16 µg/mL (≈ 55.5 µM); against Escherichia coli [7], 64 µg/mL (≈ 222 µM). Besides, in the experiment with Escherichia coli [6], the Ratio was 4.

In the case of `O=c1[nH]c(=O)n(Cc2nc3ccccc3n2Cc2cccc(F)c2)cc1F`, the MIC against Bacillus spizizenii was 8 µg/mL (≈ 21.7 µM); in the experiment with Salmonella typhi it was 128 µg/mL (≈ 348 µM); in the experiment with Candida it was 16 µg/mL (≈ 43.4 µM); in experiment [1], 2 µg/mL (≈ 5.43 µM); in the experiment on Aspergillus flavus it was 32 µg/mL (≈ 86.9 µM); against Escherichia coli [2], 2 µg/mL (≈ 5.43 µM). The MIC is 4 µg/mL (≈ 10.9 µM) in the experiment on Staphylococcus aureus [3]; 4 µg/mL (≈ 10.9 µM) against Saccharomyces cerevisiae [4]; 16 µg/mL (≈ 43.4 µM) in the experiment on Candida albicans; 64 µg/mL (≈ 174 µM) with Staphylococcus aureus [5]; 16 µg/mL (≈ 43.4 µM) with Micrococcus luteus; 64 µg/mL (≈ 174 µM) against Escherichia coli [7]. The Ratio in the experiment with Bacillus was 4.

As for `O=c1c(F)cn(Cc2nc3ccccc3n2Cc2cccc(F)c2)c(=O)n1Cc1cccc(F)c1`, the outcome in the experiment with Calf thymus DNA [8] and with Calf thymus DNA [14] was Active. Besides, the MIC in the experiment with Bacillus spizizenii came out at 16 µg/mL (≈ 33.6 µM); against Salmonella typhi, 8 µg/mL (≈ 16.8 µM); against Candida, 32 µg/mL (≈ 67.2 µM); in experiment [1] it was 4 µg/mL (≈ 8.4 µM); in the experiment with Aspergillus flavus, 8 µg/mL (≈ 16.8 µM); in the experiment on Escherichia coli [2], 2 µg/mL (≈ 4.2 µM). In addition, the MIC with Staphylococcus aureus [3] came to 4 µg/mL (≈ 8.4 µM); in the experiment with Saccharomyces cerevisiae [4] it was 1 µg/mL (≈ 2.1 µM); with Candida albicans it was 32 µg/mL (≈ 67.2 µM); in the experiment on Staphylococcus aureus [5], 2 µg/mL (≈ 4.2 µM); with Micrococcus luteus, 64 µg/mL (≈ 134 µM); against Escherichia coli [7], 8 µg/mL (≈ 16.8 µM). The Ratio in the experiment with Staphylococcus aureus [9] is given as 4; in the experiment with Staphylococcus aureus [11], 8; in the experiment on Saccharomyces cerevisiae [13], 16. For the same compound, the KSV in the experiment with Calf thymus DNA [10] turned out to be 6.45 L/mol. Moreover, the K in the experiment on Calf thymus DNA [12] stood at 3.89 ×10⁴ L/mol.

As for `Cc1ccc(Cn2c(=O)c(F)cn(Cc3nc4ccccc4n3Cc3ccc(C)cc3)c2=O)cc1`, the MIC is above 512 µg/mL in the experiment on Bacillus spizizenii; 512 µg/mL (≈ 1090 µM) against Salmonella typhi; above 512 µg/mL in the experiment on Candida; above 512 µg/mL in [1]; above 512 µg/mL against Aspergillus flavus; 128 µg/mL (≈ 273 µM) in the experiment on Escherichia coli [2]. The MIC with Staphylococcus aureus [3], in the experiment with Saccharomyces cerevisiae [4], in the experiment on Candida albicans, in the experiment on Staphylococcus aureus [5], with Micrococcus luteus and in the experiment on Escherichia coli [7] was above 512 µg/mL in each case.

For `O=c1c(F)cn(Cc2nc3ccccc3n2Cc2ccc([N+](=O)[O-])cc2)c(=O)n1Cc1ccc([N+](=O)[O-])cc1`, the MIC in the experiment with Bacillus spizizenii was 32 µg/mL (≈ 60.3 µM); with Salmonella typhi it was 32 µg/mL (≈ 60.3 µM); against Candida, above 512 µg/mL; in experiment [1] it was above 512 µg/mL; in the experiment on Aspergillus flavus it was above 512 µg/mL; against Escherichia coli [2] it was above 512 µg/mL. For the same compound, the MIC with Staphylococcus aureus [3], in the experiment with Saccharomyces cerevisiae [4], in the experiment with Candida albicans, in the experiment with Staphylococcus aureus [5], against Micrococcus luteus and against Escherichia coli [7] was above 512 µg/mL throughout.

For the compound `COc1ccc(Cn2c(=O)c(F)cn(Cc3nc4ccccc4n3Cc3ccc(OC)cc3)c2=O)cc1`, the MIC against Bacillus spizizenii is 64 µg/mL (≈ 128 µM); against Salmonella typhi, 64 µg/mL (≈ 128 µM); in the experiment with Candida, 512 µg/mL (≈ 1020 µM); in experiment [1], 32 µg/mL (≈ 63.9 µM); against Aspergillus flavus, 32 µg/mL (≈ 63.9 µM); against Escherichia coli [2] it was 128 µg/mL (≈ 256 µM). Further, the MIC against Staphylococcus aureus [3] amounted to 128 µg/mL (≈ 256 µM); against Saccharomyces cerevisiae [4], 64 µg/mL (≈ 128 µM); against Candida albicans it was 64 µg/mL (≈ 128 µM); against Staphylococcus aureus [5], 32 µg/mL (≈ 63.9 µM); against Micrococcus luteus, 64 µg/mL (≈ 128 µM); against Escherichia coli [7] it was 16 µg/mL (≈ 32 µM).

The values are drawn from ChEMBL document CHEMBL3808392, “Design, synthesis and biological evaluation of 5-fluorouracil-derived benzimidazoles as novel type of potential antimicrobial agents” (2016).
